Like-named read-outs stand apart in the source and are kept apart here. Starred links: 1 amine or outer side, 2 acyl side, 3 side chain; linkers in the order of their positions; H or OH if unused. Positions of bridges follow the written chain, without caps; N, C: chain ends. Non-standard residues stand in square brackets, D forms with d. Residues, ends and D or L forms follow the SMILES beside them. Groups on a side chain read outwards from the residue. *: point of attachment. Ala(1-CH2CO2H-4-piperidyl) = N[C@@H](CC1CCN(CC(=O)O)CC1)C(=O)O; Ala(piperidin-4-yl) = O=C([C@H](CC1CCN([*:3])CC1)N[*:1])[*:2]; DOTA = O=C(O)CN1CCN(CC(=O)O)CCN(CC(=O)*)CCN(CC(=O)O)CC1; Trp(5-F) = N[C@@H](Cc1c[nH]c2ccc(F)cc12)C(=O)O; X1 = C[C@@H](c1ccccc1)[C@H](N[*:1])C(=O)[*:2]; Ala(4-THP) = N[C@@H](CC1CCOCC1)C(=O)O; Val(3-OH) = CC(C)(O)[C@H](N)C(=O)O; PEG4 = NCCOCCOCCOCCOCCC(=O)O; Tle = CC(C)(C)[C@H](N)C(=O)O; hLeu = CC(C)CC[C@H](N)C(=O)O
T1: human 4lg B7-H3 (Homo sapiens, UniProt Q5ZPR3)
T1 sequence (Q5ZPR3 29-534): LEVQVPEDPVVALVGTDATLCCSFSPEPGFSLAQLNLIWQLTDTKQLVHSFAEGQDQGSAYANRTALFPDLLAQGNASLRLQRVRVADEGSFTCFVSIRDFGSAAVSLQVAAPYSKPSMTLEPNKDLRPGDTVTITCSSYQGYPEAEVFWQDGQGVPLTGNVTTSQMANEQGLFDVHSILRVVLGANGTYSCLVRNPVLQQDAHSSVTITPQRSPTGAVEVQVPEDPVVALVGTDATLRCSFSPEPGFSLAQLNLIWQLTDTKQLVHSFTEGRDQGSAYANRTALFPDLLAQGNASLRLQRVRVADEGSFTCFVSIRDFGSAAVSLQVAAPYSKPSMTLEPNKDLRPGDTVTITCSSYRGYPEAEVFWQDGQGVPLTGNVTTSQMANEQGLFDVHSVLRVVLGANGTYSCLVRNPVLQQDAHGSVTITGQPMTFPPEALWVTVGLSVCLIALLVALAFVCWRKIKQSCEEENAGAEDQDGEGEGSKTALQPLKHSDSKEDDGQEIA

T2: 4lg-B7-H3 (Homo sapiens, UniProt Q5ZPR3, S143D)
T2 sequence (Q5ZPR3 29-456 S143D): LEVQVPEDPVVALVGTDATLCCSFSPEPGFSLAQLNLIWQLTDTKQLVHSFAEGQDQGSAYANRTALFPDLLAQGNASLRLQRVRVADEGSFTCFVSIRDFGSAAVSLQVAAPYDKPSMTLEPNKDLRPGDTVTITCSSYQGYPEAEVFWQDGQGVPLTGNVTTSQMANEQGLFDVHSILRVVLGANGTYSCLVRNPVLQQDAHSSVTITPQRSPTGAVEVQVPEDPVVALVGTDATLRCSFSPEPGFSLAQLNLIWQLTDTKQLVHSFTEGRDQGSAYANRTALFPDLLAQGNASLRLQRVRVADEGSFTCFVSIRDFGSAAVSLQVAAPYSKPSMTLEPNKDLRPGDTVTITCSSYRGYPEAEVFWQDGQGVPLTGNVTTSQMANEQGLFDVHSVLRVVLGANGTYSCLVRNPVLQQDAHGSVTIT

T3: 2Ig B7-H3 (Homo sapiens, UniProt Q5ZPR3)
T3 sequence (Q5ZPR3 29-316 isoform Q5ZPR3-2 limits assumed): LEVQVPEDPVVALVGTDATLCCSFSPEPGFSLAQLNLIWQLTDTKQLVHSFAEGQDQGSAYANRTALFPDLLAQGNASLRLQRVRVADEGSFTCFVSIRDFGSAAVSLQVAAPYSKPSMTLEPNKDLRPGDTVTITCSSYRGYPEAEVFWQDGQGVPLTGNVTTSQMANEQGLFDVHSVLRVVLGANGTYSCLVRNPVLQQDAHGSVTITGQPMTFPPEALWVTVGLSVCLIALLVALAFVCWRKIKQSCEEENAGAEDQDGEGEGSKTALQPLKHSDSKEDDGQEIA


Key:
human 4lg B7-H3 = biological target: T1, human 4lg B7-H3; assay: Affinity determination by surface plasmon resonance (SPR) to 4Ig B7-H3
4lg-B7-H3 = biological target: T2, 4lg-B7-H3; assay: X-ray crystal structure of compound bound to 4lg-B7-H3
Protocol: The x-ray crystal structure of an exemplary compound of the disclosure bound to 4lg-B7-H3 was determined. Suitable constructs for B^7H3 expression had been previously established by PROTEROS. Expression of B^7H3 was performed according to previously established protocols. A purification protocol was established and homogeneous protein was produced in preparative amounts. The protein was purified comprising affinity and gel filtration chromatography steps. This procedure yielded homogenous protein with a purity greater 95% as judged from Coomassie stained SDS-PAGE. A 4lg-B7-H3 sequence from amino acid 29-456 was employed. The following sequence corresponds to amino acids 1-534 of 4lg-B7-H3:
The purified protein was used in crystallization trials employing both, a standard screen with approximately 1200 different conditions, as well as crystallization conditions identified using literature data. Conditions initially obtained have been optimized using standard strategies, systematically varying parameters critically influencing crystallization, such as temperature, protein concentration, drop ratio, and others. These conditions were also refined by systematically varying pH or precipitant concentrations.
A cryo-protocol was established using PROTEROS Standard Protocols. Crystals have been flash-frozen and measured at a temperature of 100 K. The X-ray diffraction data have been collected from complex crystals of 4lg-B7-H3 with the ligand of Cpd #200 at the SWISS LIGHT SOURCE (SLS, Villigen, Switzerland) using cryogenic conditions. The crystals belong to space group P 61 2 2. Data were processed using the programs autoPROC, XDS and autoPROC, AIMLESS. […]
Subsequent model building and refinement was performed according to standard protocols with COOT and the software package CCP4, respectively. For the calculation of the free R-factor, a measure to cross-validate the correctness of the final model, about 4.8% of measured reflections were excluded from the refinement procedure (Table 27). […]

Calu-6 cell line [1] = assay: Cell associated (bound) fraction of [177Lu]Lu-labeled peptide in Calu-6 cells; type: cell-based, Human; conditions: 1 hour, 37° C.
Outline: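 Detached B7-H3-expressing human lung cancer cells at 5 million/mL were exposed for 1 hour at 37 °C to 0.8 μCi of the 177Lu-labelled peptide, which was formulated in 1% PBSA after labelling at 80 °C, pH ~5. Supernatant and two cold washes counted as unbound, and resuspended cells gamma-counted as the cell-associated fraction.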

Calu-6 cell line [2] = assay: Net internalization of [177Lu]Lu-labeled peptide in Calu-6 cells; type: cell-based, Human; conditions: 1 hour, 37° C., glycine pH 2.5 acid wash
Outline: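 Calu-6 cells, human non-engineered lung cancer expressing B7-H3, resuspended in 1% PBSA at 5 million cells/mL and incubated with the 177Lu-labeled conjugate (labeled at 80 °C, pH ~5, RP-HPLC checked). Gamma counting of the bound fraction, then of the pellet after two glycine pH 2.5 acid strips and NaOH lysis, gives internalized activity.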

Calu-6 tumors = assay: Ex vivo biodistribution of radiolabeled peptides in nude mice bearing Calu-6 tumors; conditions: [177Lu]Lu labeling, 24 h post-injection
Protocol: Mice were euthanized at pre-determined time points and selected tissues were resected and collected into pre-weighed tubes. The tubes were then reweighed post resection, the difference giving the weight of each tissue. Radioactivity in each tissue was measured using a gamma counter. Counts were decay corrected to the time of injection and percentage of injected activity per gram (% IA/g) was calculated for each tissue based on the injected activity into each individual mouse. Injected activity was converted to counts based on the sensitivity of the gamma counter. The counts in tissue were then converted to the percentage of injected activity and this was divided by the mass of tissue to give % IA/g.

2Ig B7-H3 = biological target: T3, 2Ig B7-H3; assay: SPR binding affinity to 2Ig B7-H3
[3] = biological target: B7-H3 on Calu-6 cells (human) (UniProt Q5ZPR3); assay: 177Lu-labelled peptide on Calu-6 cells, % cell associated fraction; C = >50%
[4] = biological target: Biotinylated human 4Ig B7-H3 (human) (UniProt Q5ZPR3); assay: SPR 37C; A = KD<=1.0 nM
[5] = biological target: Biotinylated human 4Ig B7-H3 (human) (UniProt Q5ZPR3); assay: SPR 25C; A = KD<=1.0 nM

Row | Molecule | Kd (human 4lg B7-H3; read-out: SPR KD—25° C., 4Ig B7-H3, 25° C. flow cell temperature) | Kd (human 4lg B7-H3; read-out: SPR KD—37° C., 4Ig B7-H3, 37° C. flow cell temperature) | Resolution [Å] (4lg-B7-H3; complex crystals of 4lg-B7-H3 with ligand, parenthesis = highest resolution bin) | specific hydrogen bonds to 4lg-B7-H3 (4lg-B7-H3; distance of less than 3.5 Å of donor and acceptor atoms) | ligand binding site in 4lg-B7-H3 (4lg-B7-H3; extracellular domain residues 29-456) | % cell associated fraction (Calu-6 cell line [1]) | % net internalization (Calu-6 cell line [2]) | Kd (human 4lg B7-H3) | kidney uptake (% IA/g) (Calu-6 tumors) | tumor uptake (% IA/g) (Calu-6 tumors) | Kd (2Ig B7-H3) | % cell associated fraction [3] | KD [4] | KD [5]
1 | CC(=O)N[C@@H](CCC(C)C)C(=O)N[C@@H](Cc1ccc(O)cc1)C(=O)N[C@H]1CSSC[C@@H](C(=O)N[C@@H](Cc2c[nH]c3ccc(F)cc23)C(=O)N[C@@H](Cc2ccccc2)C(=O)N[C@H](C(=O)N[C@H](CCCCNC(=O)CN2CCN(CC(=O)O)CCN(CC(=O)O)CCN(CC(=O)O)CC2)C(N)=O)[C@@H](C)O)NC(=O)[C@H](Cc2ccc(O)cc2)NC(=O)[C@H](C(C)C)NC(=O)[C@H](CC(=O)O)NC(=O)[C@H](CC2CCOCC2)NC(=O)[C@H](CCCCN)NC(=O)CNC(=O)[C@H](C(C)C)NC1=O [compound 200, Ac-hLeu-Y-C-V-G-K-ThpA-D-V-Y-C-5FW-F-Thr-dLys(DOTA)-CONH2] (Ac-[hLeu]YCVGK[Ala(4-THP)]DVYC[Trp(5-F)]FT[dK](DOTA)-NH2; disulfide 3-11) | < 1 nM | 1 to 10 nM | 2.98 (3.28-2.98) Å | eleven | bound between the Ig-like C2-type 1 and Ig-like V-type 2 domains | C (%>50) | A (%≤25) |  |  |  |  |  |  | 
2 | CC(=O)N[C@@H](CCC(C)C)C(=O)N[C@@H](Cc1ccc(O)cc1)C(=O)N[C@H]1CSSC[C@@H](C(=O)N[C@@H](Cc2c[nH]c3ccc(F)cc23)C(=O)N[C@H](C(=O)N[C@H](C(=O)N[C@H](CCC(=O)O)C(N)=O)C(C)(C)O)[C@@H](C)c2ccccc2)NC(=O)[C@H](Cc2ccc(O)cc2)NC(=O)[C@H](C(C)C)NC(=O)[C@H](CC(=O)O)NC(=O)[C@H](CC2CCN(C(=O)CCOCCOCCOCCOCCNC(=O)CN3CCN(CC(=O)O)CCN(CC(=O)O)CCN(CC(=O)O)CC3)CC2)NC(=O)[C@H](CC2CCN(CC(=O)O)CC2)NC(=O)CNC(=O)[C@H](C(C)(C)C)NC1=O [compound 496, Ac-hLeu-Y-C-Tbg-G-Pip(CH2COOH)Ala-Pip(PEG4-DOTA)Ala-D-V-Y-C-5FW-[(2S, 3S)beta-Me-Phe]-hydroxyVal-dGlu-CONH2] (Ac-[hLeu]YC[Tle]G[Ala(1-CH2CO2H-4-piperidyl)][Ala(piperidin-4-yl)]([PEG4-DOTA])DVYC[Trp(5-F)][X1][Val(3-OH)][dE]-NH2; disulfide 3-11) |  |  |  |  |  | B (25<%≤50) | A (%≤25) | < 1 nM | C (0 < % IA/g ≤ 10 in kidney) | A (0 < % IA/g ≤ 5 in tumor) | 526 nM |  |  | 
3 | CC(=O)N[C@@H](CCC(C)C)C(=O)N[C@@H](Cc1ccc(O)cc1)C(=O)N[C@H]1CSSC[C@@H](C(=O)N[C@@H](Cc2c[nH]c3ccc(F)cc23)C(=O)N[C@H](C(=O)N[C@H](C(=O)N[C@H](C)C(=O)O)C(C)(C)O)[C@@H](C)c2ccccc2)NC(=O)[C@H](Cc2ccc(O)cc2)NC(=O)[C@H](C(C)C)NC(=O)[C@H](CC(=O)O)NC(=O)[C@H](CC2CCN(C(=O)CCOCCOCCOCCOCCNC(=O)CN3CCN(CC(=O)O)CCN(CC(=O)O)CCN(CC(=O)O)CC3)CC2)NC(=O)[C@H](CC2CCN(CC(=O)O)CC2)NC(=O)CNC(=O)[C@H](C(C)(C)C)NC1=O [compound 526, Ac-hLeu-Y-C-Tbg-G-Pip(CH2COOH)Ala-Pip(PEG4-DOTA)Ala-D-V-Y-C-5FW-[(2S, 3S)beta-Me-Phe]-hydroxyVal-dAla-COOH] (Ac-[hLeu]YC[Tle]G[Ala(1-CH2CO2H-4-piperidyl)][Ala(piperidin-4-yl)]([PEG4-DOTA])DVYC[Trp(5-F)][X1][Val(3-OH)][dA]-OH; disulfide 3-11) |  |  |  |  |  |  |  | < 1 nM | D (% IA/g > 10 in kidney) | A (0 < % IA/g ≤ 5 in tumor) | 380 nM |  |  | 
4 | Ac-[hLeu]YC[Tle]GK[Ala(4-THP)]DVYC[Trp(5-F)]F[Val(3-OH)][dK](DOTA)-OH (disulfide 3-11 (inferred)) [Cpd 303] |  |  |  |  |  |  |  |  |  |  |  | > 50% | < 1 nM | < 1 nM

From patent US20250296959A1, “B7-H3 TARGETING PEPTIDES AND CONSTRUCTS THEREOF” (Mariana Oncology Inc., priority 2024, published 2025)
